Source: ChEMBL document CHEMBL3860098, “Sulfamide as Zinc Binding Motif in Small Molecule Inhibitors of Activated Thrombin Activatable Fibrinolysis Inhibitor (TAFIa)” (J Med Chem, 2016)

Legend:
Carboxypeptidase B2 = molecular target: T1, Carboxypeptidase B2 (Homo sapiens, UniProt Q96IY4)
T1 sequence (Q96IY4 whole entry): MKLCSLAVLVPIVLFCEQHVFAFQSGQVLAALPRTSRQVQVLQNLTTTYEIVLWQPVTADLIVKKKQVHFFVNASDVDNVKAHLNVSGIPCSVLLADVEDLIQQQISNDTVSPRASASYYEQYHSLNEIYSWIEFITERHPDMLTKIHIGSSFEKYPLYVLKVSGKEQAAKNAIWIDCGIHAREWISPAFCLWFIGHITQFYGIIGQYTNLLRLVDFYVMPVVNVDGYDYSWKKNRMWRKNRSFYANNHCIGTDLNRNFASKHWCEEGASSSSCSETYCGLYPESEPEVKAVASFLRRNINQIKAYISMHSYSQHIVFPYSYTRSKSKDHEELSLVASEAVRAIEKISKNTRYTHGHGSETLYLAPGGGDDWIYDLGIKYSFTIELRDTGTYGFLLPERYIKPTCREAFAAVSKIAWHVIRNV
Description: Inhibition of activated human plasma TAFI incubated for 15 mins by chromogenic assay

[1] = Intrinsic clearance in human hepatocytes assessed per 10^6 cells; type: ADME, cell-based, Hepatocyte
[2] = Drug metabolism in Swiss CD1 mouse liver microsomes assessed as CYP450/FMO-mediated oxidative metabolism at 5 uM after 20 mins in presence of NADPH; type: ADME; conditions: read-out: Drug metabolism
Cytochrome P450 3A4 = Cytochrome P450 3A4 (Homo sapiens, UniProt P08684); experiment: Induction of CYP3A4 (unknown origin); type: ADME
[3] = Drug metabolism in Sprague-Dawley rat liver microsomes assessed as CYP450/FMO-mediated oxidative metabolism at 5 uM after 20 mins in presence of NADPH; type: ADME; conditions: read-out: Drug metabolism
Cytochrome P450 1A2 = molecular target: T2, Cytochrome P450 1A2 (Homo sapiens, UniProt P05177); experiment: Induction of CYP1A2 (unknown origin); type: ADME
T2 sequence (P05177 whole entry): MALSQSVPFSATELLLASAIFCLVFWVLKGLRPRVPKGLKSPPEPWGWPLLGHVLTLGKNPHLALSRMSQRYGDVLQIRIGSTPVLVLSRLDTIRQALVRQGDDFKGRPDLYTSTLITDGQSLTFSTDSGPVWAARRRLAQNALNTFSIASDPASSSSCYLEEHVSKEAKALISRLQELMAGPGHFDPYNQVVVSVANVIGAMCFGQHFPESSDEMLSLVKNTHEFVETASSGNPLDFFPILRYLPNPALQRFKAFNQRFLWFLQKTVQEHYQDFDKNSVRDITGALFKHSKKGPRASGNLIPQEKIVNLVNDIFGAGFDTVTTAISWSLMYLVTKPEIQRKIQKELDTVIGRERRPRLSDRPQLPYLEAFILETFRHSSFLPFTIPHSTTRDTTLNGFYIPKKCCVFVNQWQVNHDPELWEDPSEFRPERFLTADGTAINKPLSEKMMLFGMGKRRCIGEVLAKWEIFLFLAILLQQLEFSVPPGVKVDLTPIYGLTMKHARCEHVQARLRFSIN

[4] = Permeability across apical to basolateral side in human Caco2/TC7 cells at 20 uM after 120 mins by UPLC/ESI-MS-MS analysis; type: ADME, cell-based; conditions: Caco-2
[5] = molecular target: Voltage-gated inwardly rectifying potassium channel KCNH2 (Homo sapiens, UniProt Q12809); experiment: Inhibition of recombinant human ERG expressed in CHO cells by patch clamp method; type: cell-based
Cytochrome P450 1A1 = molecular target: T3, Cytochrome P450 1A1 (Homo sapiens, UniProt P04798); experiment: Induction of CYP1A1 (unknown origin); type: ADME
T3 sequence (P04798 whole entry): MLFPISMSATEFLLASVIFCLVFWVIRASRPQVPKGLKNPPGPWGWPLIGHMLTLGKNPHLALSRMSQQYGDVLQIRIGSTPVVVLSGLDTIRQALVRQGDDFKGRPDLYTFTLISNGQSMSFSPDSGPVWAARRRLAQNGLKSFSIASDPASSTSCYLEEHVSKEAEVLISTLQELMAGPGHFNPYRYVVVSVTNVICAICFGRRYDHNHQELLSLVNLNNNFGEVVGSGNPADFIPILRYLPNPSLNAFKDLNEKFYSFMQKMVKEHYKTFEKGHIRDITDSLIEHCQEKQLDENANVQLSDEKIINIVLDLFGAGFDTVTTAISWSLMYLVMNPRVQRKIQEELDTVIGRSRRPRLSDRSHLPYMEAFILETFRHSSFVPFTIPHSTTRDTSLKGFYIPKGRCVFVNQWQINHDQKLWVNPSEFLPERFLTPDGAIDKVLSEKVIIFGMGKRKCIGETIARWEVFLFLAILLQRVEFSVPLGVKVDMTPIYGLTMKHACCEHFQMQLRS

[6] = Lipophilicity, log D of the compound at pH 7.4 at 25 degC; type: physicochemical; conditions: buffer
[7] = Drug metabolism in human liver microsomes assessed as CYP450/FMO-mediated oxidative metabolism at 5 uM after 20 mins in presence of NADPH; type: ADME; conditions: read-out: Drug metabolism
[8] = Aqueous solubility of the compound at pH 7.4 at 25 degC; type: physicochemical
[9] = Volume distribution at steady state in Sprague-Dawley rat at 1 mg/kg, iv administered as bolus dose measured up to 24 hrs; type: ADME, organism-based; conditions: in vivo, read-out: Vdss
[10] = Initial plasma concentration in Sprague-Dawley rat at 1 mg/kg, iv administered as bolus dose measured up to 4 hrs; type: ADME, organism-based
[11] = Drug excretion in Sprague-Dawley rat urine at 1 mg/kg, iv administered as bolus dose after 24 hrs; type: ADME, organism-based; conditions: read-out: Drug excretion
[12] = Terminal half life in Sprague-Dawley rat at 1 mg/kg, iv administered as bolus dose measured up to 24 hrs; type: ADME, organism-based; conditions: in vivo, read-out: beta t1/2 (converted)
[13] = Clearance in Sprague-Dawley rat at 1 mg/kg, iv administered as bolus dose measured up to 24 hrs; type: ADME, organism-based; conditions: in vivo

Sequence of Cytochrome P450 3A4 (P08684 whole entry): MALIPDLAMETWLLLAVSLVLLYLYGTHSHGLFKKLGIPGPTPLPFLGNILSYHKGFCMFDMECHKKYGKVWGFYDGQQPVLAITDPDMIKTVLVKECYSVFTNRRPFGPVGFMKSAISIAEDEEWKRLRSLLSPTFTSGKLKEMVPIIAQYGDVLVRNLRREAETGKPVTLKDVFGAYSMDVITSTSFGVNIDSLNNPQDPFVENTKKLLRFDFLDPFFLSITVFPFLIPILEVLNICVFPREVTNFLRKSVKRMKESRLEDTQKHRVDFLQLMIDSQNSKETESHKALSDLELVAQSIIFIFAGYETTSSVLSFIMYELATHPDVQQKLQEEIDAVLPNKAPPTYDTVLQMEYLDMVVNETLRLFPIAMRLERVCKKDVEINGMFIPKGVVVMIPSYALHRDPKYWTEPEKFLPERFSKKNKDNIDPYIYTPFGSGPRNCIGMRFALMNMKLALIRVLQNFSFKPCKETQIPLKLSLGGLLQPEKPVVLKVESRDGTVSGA
Sequence of Voltage-gated inwardly rectifying potassium channel KCNH2 (Q12809 whole entry): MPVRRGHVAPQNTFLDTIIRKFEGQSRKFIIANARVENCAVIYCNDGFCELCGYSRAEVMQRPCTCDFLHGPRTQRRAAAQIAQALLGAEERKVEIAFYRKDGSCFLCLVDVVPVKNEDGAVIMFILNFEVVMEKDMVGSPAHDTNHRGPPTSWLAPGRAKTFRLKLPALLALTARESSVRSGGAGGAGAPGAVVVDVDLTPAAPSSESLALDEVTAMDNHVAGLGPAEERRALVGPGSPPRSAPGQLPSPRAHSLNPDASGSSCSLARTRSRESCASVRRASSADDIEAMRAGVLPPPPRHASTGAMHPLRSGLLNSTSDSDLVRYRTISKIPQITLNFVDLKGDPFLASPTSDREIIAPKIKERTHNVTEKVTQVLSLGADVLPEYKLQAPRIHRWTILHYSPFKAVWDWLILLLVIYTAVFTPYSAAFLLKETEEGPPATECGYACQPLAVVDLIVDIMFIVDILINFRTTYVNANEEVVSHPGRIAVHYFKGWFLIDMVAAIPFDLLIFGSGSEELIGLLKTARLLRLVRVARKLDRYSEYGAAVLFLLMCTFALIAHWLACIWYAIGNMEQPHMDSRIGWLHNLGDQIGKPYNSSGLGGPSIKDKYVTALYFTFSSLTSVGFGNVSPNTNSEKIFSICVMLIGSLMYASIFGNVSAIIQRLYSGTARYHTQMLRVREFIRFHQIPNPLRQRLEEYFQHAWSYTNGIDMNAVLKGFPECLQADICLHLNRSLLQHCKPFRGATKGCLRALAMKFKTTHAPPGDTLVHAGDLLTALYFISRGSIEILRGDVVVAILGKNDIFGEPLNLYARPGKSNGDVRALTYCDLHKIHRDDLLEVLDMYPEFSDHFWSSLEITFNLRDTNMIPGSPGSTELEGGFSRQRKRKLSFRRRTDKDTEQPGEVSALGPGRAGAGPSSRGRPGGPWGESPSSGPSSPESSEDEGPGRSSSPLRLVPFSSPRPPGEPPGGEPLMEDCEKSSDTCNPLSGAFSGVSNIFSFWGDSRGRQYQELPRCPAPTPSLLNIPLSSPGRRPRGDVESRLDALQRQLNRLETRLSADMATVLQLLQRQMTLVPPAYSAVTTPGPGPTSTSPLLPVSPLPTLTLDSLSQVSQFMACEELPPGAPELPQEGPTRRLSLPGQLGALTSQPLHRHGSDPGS

With `CC(C)(C)NC(=O)[C@H](CC1CCCCC1)NS(=O)(=O)N[C@@H](CCCCN)C(=O)O` the IC50 (Carboxypeptidase B2) was 6.7 µM.

Work on `CC1(C)[C@@H]2CC[C@@]1(C)[C@@H](NC(=O)[C@H](CC1CCCCC1)NS(=O)(=O)N[C@@H](CCCCO)C(=O)O)C2` yielded an IC50 (Carboxypeptidase B2) of over 30 µM.

`CC1(C)[C@@H]2CC[C@@]1(C)[C@@H](NC(=O)[C@H](CC1CCCCC1)NS(=O)(=O)N[C@@H](CCCCNC(N)=O)C(=O)O)C2` showed an IC50 (Carboxypeptidase B2) of over 30 µM.

In the case of `NCCCC[C@H](NS(=O)(=O)NCC(=O)NC12CC3CC(CC(C3)C1)C2)C(=O)O`, the IC50 (Carboxypeptidase B2) is reported as over 30 µM.

With `CC1(C)[C@@H]2CC[C@@]1(C)[C@@H](NC(=O)[C@H](CC1CCCCC1)NS(=O)(=O)N[C@@H](CCCC(N)=O)C(=O)O)C2` the IC50 (Carboxypeptidase B2) was over 30 µM.

With `CC1(C)C2CCC1(C)C(OC(=O)[C@H](CC1CCCCC1)NS(=O)(=O)N[C@@H](CCCCN)C(=O)O)C2` (stereo partly drawn) the IC50 (Carboxypeptidase B2) was 6.4 µM.

`C[C@H](NS(=O)(=O)N[C@@H](CCCCN)C(=O)O)C(=O)NC12CC3CC(CC(C3)C1)C2` gave an IC50 (Carboxypeptidase B2) of over 30 µM.

`CC1(C)[C@@H]2CC[C@@]1(C)[C@@H](NC(=O)[C@H](CC1CCCCC1)NS(=O)(=O)N[C@@H](CCCCN)C(=O)O)C2.Cl` showed a CLH [1] of 0.043 mL/h, a metabolised at 20 min, 5 µM [2] of 0% and an Activity (Cytochrome P450 3A4) of under 10%. For the same compound, the metabolised at 20 min, 5 µM [3] was 8%, the Activity (Cytochrome P450 1A2) was under 10% and the Papp A→B at 2 h, 20 µM [4] was 0.06 ×10⁻⁶ cm/s. The IC50 [5] was over 10 µM, the Activity (Cytochrome P450 1A1) was under 10% and the logD [6] was 2.02. The metabolised at 20 min, 5 µM [7] was 21% and the solubility [8] was 457 µg/mL.

For `CC1(C)[C@@H]2CC[C@@]1(C)[C@@H](NC(=O)[C@H](CC1CCCCC1)NS(=O)(=O)N[C@@H](CCCCN)C(=O)O)C2`, the Vd [9] was 0.38 L/kg, the C0 at 4 h [10] was 3800 ng/mL and the dose excreted at 24 h [11] was 4%. The half-life [12] was 1.7 h and the clearance [13] was 11.7 mL/min/kg.
